Experiment [1] relates to YAP nuclear translocation in HaCaT cells. Nature of the experiment: YAP Translocation Assay (HaCaT Cells). The class given is cell-based, human. To be noted: Homo sapiens, 24 hours. How it is done: HaCaT cells were suspended at 0.4×10^6 cells/ml in DMEM+10% FBS with penicillin-streptomycin-glutamine. 50 μl of cells were dispensed into 384-well clear bottom assay plates (20,000 cells/well), and incubated overnight at 37° C. 100 nL test compound was transferred into the assay wells containing HaCaT cells using ECHO (Labcyte). After 24 hours incubation at 37° C., 7 μL of 32% PFA was dispensed into each well and incubated for 45 minutes at room temperature. Plates were washed 3 times with PBS, leaving 20 μL of PBS per well, then treated with 0.1% Triton and 1.5% BSA in PBS for 45 minutes at room temperature. Plates were washed for 5 times with PBS, leaving 20 μL of PBS per well. […] Plates were further washed 3 time with PBS, sealed and imaged on the high-content Opera imaging system (PerkinElmer).

The target in experiment [2] is LATS1 (Homo sapiens (Human), UniProt O95835). The experiment can be described thus: LATS1 biochemical assay (Table 1A, Compound Examples 1-290; method in the earlier part).

Drawing on patent publication US11458138B2 (Novartis AG, priority 2017, dated 2022), this text covers EC50 and IC50 for 35 compounds.

One may read the EC50 as the concentration that produces a half-maximal response. Low values mean higher potency in that assay, high ones lower potency in that assay. By IC50 is commonly meant the point on the concentration scale where inhibition reaches its midpoint.

LATS1, sequence (O95835 whole entry, looked up): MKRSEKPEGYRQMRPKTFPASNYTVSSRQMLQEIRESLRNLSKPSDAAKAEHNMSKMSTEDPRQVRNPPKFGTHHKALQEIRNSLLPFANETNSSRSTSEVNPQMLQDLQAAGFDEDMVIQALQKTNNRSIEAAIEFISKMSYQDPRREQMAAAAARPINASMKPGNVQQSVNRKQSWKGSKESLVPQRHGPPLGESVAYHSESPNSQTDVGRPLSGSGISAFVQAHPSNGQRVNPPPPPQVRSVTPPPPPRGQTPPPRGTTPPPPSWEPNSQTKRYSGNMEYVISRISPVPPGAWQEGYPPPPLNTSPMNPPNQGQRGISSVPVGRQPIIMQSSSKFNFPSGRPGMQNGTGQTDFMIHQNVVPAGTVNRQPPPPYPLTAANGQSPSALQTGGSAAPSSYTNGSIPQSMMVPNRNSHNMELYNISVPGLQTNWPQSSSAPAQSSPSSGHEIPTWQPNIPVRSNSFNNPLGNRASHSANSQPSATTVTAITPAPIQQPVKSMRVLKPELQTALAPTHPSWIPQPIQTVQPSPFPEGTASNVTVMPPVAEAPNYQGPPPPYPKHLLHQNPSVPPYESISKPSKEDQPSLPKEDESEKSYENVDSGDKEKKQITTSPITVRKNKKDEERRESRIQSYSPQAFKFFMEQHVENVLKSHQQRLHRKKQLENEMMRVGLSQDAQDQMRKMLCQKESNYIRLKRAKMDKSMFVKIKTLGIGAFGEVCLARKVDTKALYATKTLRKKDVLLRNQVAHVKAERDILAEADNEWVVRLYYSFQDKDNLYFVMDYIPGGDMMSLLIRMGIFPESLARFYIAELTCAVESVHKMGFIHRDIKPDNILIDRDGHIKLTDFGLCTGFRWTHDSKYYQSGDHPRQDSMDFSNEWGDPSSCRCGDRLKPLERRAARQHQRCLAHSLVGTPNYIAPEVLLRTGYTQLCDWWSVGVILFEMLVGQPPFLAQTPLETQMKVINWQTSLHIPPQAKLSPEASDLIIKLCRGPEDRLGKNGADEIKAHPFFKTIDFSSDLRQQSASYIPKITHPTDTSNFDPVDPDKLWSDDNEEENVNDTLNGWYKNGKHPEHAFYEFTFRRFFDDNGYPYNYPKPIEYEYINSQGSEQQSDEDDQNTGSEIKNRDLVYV
LATS1, sequence (Q7L9L4 whole entry partner, looked up): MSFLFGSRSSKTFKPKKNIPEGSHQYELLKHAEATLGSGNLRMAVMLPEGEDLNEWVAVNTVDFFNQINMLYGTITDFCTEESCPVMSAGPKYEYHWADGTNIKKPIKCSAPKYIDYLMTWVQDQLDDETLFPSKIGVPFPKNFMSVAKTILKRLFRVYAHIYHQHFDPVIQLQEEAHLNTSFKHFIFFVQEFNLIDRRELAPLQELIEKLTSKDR

Consider `O=C(O)CCCNc1nc(-c2ccncc2)nc2cnccc12` [Example 97, 4-{[2-(pyridin-4-yl)pyrido[3,4-d]pyrimidin-4-yl]amino}butanoic acid], for which the half-maximal effective concentration (EC50) in experiment [1] is more than 20000 nM.
Regarding `CC1(C)CC(O)CCN1c1cc(-c2ccncc2)nc2cnccc12` (stereo not drawn) [Example 262, 2,2-dimethyl-1-[2-(pyridin-4-yl)-1,7-naphthyridin-4-yl]piperidin-4-ol], the IC50 in experiment [2] is 3 nM. In experiment [1], this compound displayed an EC50 of 311 nM.
Taken in the same sequence, the figures for `Cn1cncc1-c1nc(NC2(C)CC2)c2ccncc2n1` [Example 178, 2-(1-methyl-1H-imidazol-5-yl)-N-(1-methylcyclopropyl)pyrido[3,4-d]pyrimidin-4-amine] were more than 2500 nM and more than 20000 nM.
Taken in the same sequence, the figures for `Cc1n[nH]cc1-c1nc(NC(C)c2ccncc2)c2ccncc2n1` (stereo not drawn) [Example 190, 2-(3-methyl-1H-pyrazol-4-yl)-N-[1-(pyridin-4-yl)ethyl]pyrido[3,4-d]pyrimidin-4-amine] were 99 nM and more than 20000 nM.
Taken in the same sequence, the figures for `CC(C)S(=O)(=O)Nc1nc(-c2ccncc2)nc2cnccc12` [Example 45, N-[2-(pyridin-4-yl)pyrido[3,4-d]pyrimidin-4-yl]propane-2-sulfonamide] were more than 2500 nM and more than 20000 nM.
With `CC(C)N(C)c1cc(-c2ccncc2F)nc2cnccc12` [Example 277, 2-(3-fluoropyridin-4-yl)-N-methyl-N-(propan-2-yl)-1,7-naphthyridin-4-amine], in experiment [2], half-maximal inhibition (IC50) was put at 65 nM. Besides, the 50% effective concentration (EC50) in experiment [1] was more than 20000 nM.
With `CC1(Nc2nc(-c3ccnc(C#N)c3)nc3cnccc23)CC1` [Example 151, 4-{4-[(1-methylcyclopropyl)amino]pyrido[3,4-d]pyrimidin-2-yl}pyridine-2-carbonitrile], in experiment [2], the IC50 is more than 10000 nM.
In experiment [2], `CN(C)C1(CNc2nc(-c3ccncc3)nc3cnccc23)CCOCC1` [Example 39, N-{[4-(dimethylamino)oxan-4-yl]methyl}-2-(pyridin-4-yl)pyrido[3,4-d]pyrimidin-4-amine] displayed an IC50 of 244 nM. For the same compound, in experiment [1], the EC50 is more than 11600 nM.
On the same counts, the results for `Cn1nccc1-c1nc(NC2(C(F)(F)F)CC2)c2ccncc2n1` [Example 189, 2-(1-methyl-1H-pyrazol-5-yl)-N-[1-(trifluoromethyl)cyclopropyl]pyrido[3,4-d]pyrimidin-4-amine] are 83 nM and more than 10000 nM.
Taken in the same sequence, the figures for `CN[C@@H]1CCCC[C@H]1N(C)c1nc(-c2ccncc2)nc2cnccc12` [Example 53, (1R,2R)-1-N,2-N-dimethyl-1-N-[2-(pyridin-4-yl)pyrido[3,4-d]pyrimidin-4-yl]cyclohexane-1,2-diamine] were 40 nM and more than 20000 nM.
`CC(C)(C)Nc1nc(-c2cc(Cl)ncc2C(F)(F)F)nc2cnccc12` [Example 131, N-tert-butyl-2-[2-chloro-5-(trifluoromethyl)pyridin-4-yl]pyrido[3,4-d]pyrimidin-4-amine]: the IC50 in experiment [2] was more than 833 nM. Moreover, in experiment [1], the EC50 is more than 20000 nM.
On the same counts, the results for `OCCC(Nc1nc(-c2ccncc2)nc2cnccc12)C(F)(F)F` (stereo not drawn) [Example 27, 4,4,4-trifluoro-3-{[2-(pyridin-4-yl)pyrido[3,4-d]pyrimidin-4-yl]amino}butan-1-ol] are 35 nM and more than 14400 nM.
For the compound `CC1(Nc2nc(-c3ccnc(C(F)(F)F)c3)nc3cnccc23)CC1` [Example 150, N-(1-methylcyclopropyl)-2-[2-(trifluoromethyl)pyridin-4-yl]pyrido[3,4-d]pyrimidin-4-amine], the IC50 in experiment [2] was 4270 nM.
As for `CC(C)(COCC(=O)O)Nc1nc(-c2ccncc2)nc2cnccc12` [Example 25, 2-(2-methyl-2-{[2-(pyridin-4-yl)pyrido[3,4-d]pyrimidin-4-yl]amino}propoxy)acetic acid], the IC50 in experiment [2] stood at 30 nM. In experiment [1], this compound returned an EC50 of more than 20000 nM.
Taken in the same sequence, the figures for `CC1(Nc2nc(-c3ccnc(F)c3F)nc3cnccc23)CC1` [Example 148, 2-(2,3-difluoropyridin-4-yl)-N-(1-methylcyclopropyl)pyrido[3,4-d]pyrimidin-4-amine] were 168 nM and more than 20000 nM.
The compound `CC(Nc1nc(-c2ccncc2)nc2cnccc12)c1ccccc1` (stereo not drawn) [Example 98, N-(1-phenylethyl)-2-(pyridin-4-yl)pyrido[3,4-d]pyrimidin-4-amine] registered an IC50 in experiment [2] of 1350 nM.
Same read-out and setting: in the case of `OCC1(Nc2nc(-c3cn[nH]c3)nc3cnccc23)CCC1` [Example 191, (1-{[2-(1H-pyrazol-4-yl)pyrido[3,4-d]pyrimidin-4-yl]amino}cyclobutyl)methanol] it was 189 nM.
As for `CC1(Nc2nc(-c3ccn[nH]3)nc3cnccc23)CC1` [Example 176, N-(1-methylcyclopropyl)-2-(1H-pyrazol-5-yl)pyrido[3,4-d]pyrimidin-4-amine], the IC50 in experiment [2] is more than 2500 nM. Besides, in experiment [1], the EC50 was more than 20000 nM.
Taken in the same sequence, the figures for `CC(C)(O)COCC(C)(C)Nc1nc(-c2ccncc2Cl)nc2cnccc12` [Example 127, 1-(2-{[2-(3-chloropyridin-4-yl)pyrido[3,4-d]pyrimidin-4-yl]amino}-2-methylpropoxy)-2-methylpropan-2-ol] were 55 nM and more than 20000 nM.
On the same counts, the results for `Clc1cnccc1-c1nc(NCCCc2nnn[nH]2)c2ccncc2n1` [Example 132, 2-(3-chloropyridin-4-yl)-N-[3-(1H-1,2,3,4-tetrazol-5-yl)propyl]pyrido[3,4-d]pyrimidin-4-amine] are more than 2500 nM and more than 20000 nM.
Taken in the same sequence, the figures for `CC(C)N(C)c1cc(-c2ccncc2)nc2cnccc12` [Example 259, N-methyl-N-(propan-2-yl)-2-(pyridin-4-yl)-1,7-naphthyridin-4-amine] were 61 nM and 17300 nM.
Compound `Cc1cccc(Nc2nc(-c3ccncc3)nc3cnccc23)c1` [Example 93, N-(3-methylphenyl)-2-(pyridin-4-yl)pyrido[3,4-d]pyrimidin-4-amine] gave an IC50 in experiment [2] of 809 nM. This compound came in with an EC50 in experiment [1] of more than 20000 nM.
Taken in the same sequence, the figures for `Cc1n[nH]cc1-c1nc(NC2(CO)CCC2)c2ccncc2n1` [Example 185, (1-{[2-(3-methyl-1H-pyrazol-4-yl)pyrido[3,4-d]pyrimidin-4-yl]amino}cyclobutyl)methanol] were 9 nM and 11500 nM.
Compound `CC(C)(O)CC(C)(C)Nc1nc(-c2ccncc2Cl)nc2cnccc12` [Example 125, 4-{[2-(3-chloropyridin-4-yl)pyrido[3,4-d]pyrimidin-4-yl]amino}-2,4-dimethylpentan-2-ol] came in with a half-inhibitory concentration (IC50) in experiment [2] of 23 nM. The EC50 in experiment [1] was determined as 8000 nM.
In experiment [2], `CC(C)(CN)Nc1nc(-c2cn[nH]c2)nc2cnccc12` [Example 197, N-(1-amino-2-methylpropan-2-yl)-2-(1H-pyrazol-4-yl)pyrido[3,4-d]pyrimidin-4-amine] yielded an IC50 of 23 nM.
Regarding `CCn1nccc1-c1nc(NC2(C)CC2)c2ccncc2n1` [Example 173, 2-(1-ethyl-1H-pyrazol-5-yl)-N-(1-methylcyclopropyl)pyrido[3,4-d]pyrimidin-4-amine], the IC50 in experiment [2] came to 61 nM. The same compound returned an EC50 in experiment [1] of more than 20000 nM.
On the same counts, the results for `Clc1cnccc1-c1nc(NC2CCCC2)c2ccncc2n1` [Example 126, 2-(3-chloropyridin-4-yl)-N-cyclopentylpyrido[3,4-d]pyrimidin-4-amine] are 53 nM and more than 20000 nM.
Turning to `CC1(Nc2nc(-c3ccncc3)nc3cnccc23)CCC1` [Example 60, N-(1-methylcyclobutyl)-2-(pyridin-4-yl)pyrido[3,4-d]pyrimidin-4-amine], the midpoint of inhibition in experiment [2], the IC50, lay at 1 nM. In experiment [1], this compound returned an EC50 of 440 nM.
Taken in the same sequence, the figures for `Cc1ccc(Nc2nc(-c3ccncc3)nc3cnccc23)cc1` [Example 90, N-(4-methylphenyl)-2-(pyridin-4-yl)pyrido[3,4-d]pyrimidin-4-amine] were 126 nM and more than 20000 nM.
In experiment [2], `C[C@@](Nc1nc(-c2ccncc2)nc2cnccc12)(C(=O)O)C(F)(F)F` [Example 31, (2R)-3,3,3-trifluoro-2-methyl-2-{[2-(pyridin-4-yl)pyrido[3,4-d]pyrimidin-4-yl]amino}propanoic acid] displayed an IC50 of 41 nM. Moreover, the EC50 in experiment [1] was more than 20000 nM.
Taken in the same sequence, the figures for `CC(C)(O)CC(C)(C)Nc1nc(-c2c[nH]nc2C(F)(F)F)nc2cnccc12` [Example 119, 2,4-dimethyl-4-({2-[3-(trifluoromethyl)-1H-pyrazol-4-yl]pyrido[3,4-d]pyrimidin-4-yl}amino)pentan-2-ol] were 9 nM and 5180 nM.
For the compound `CCn1cc(-c2nc(NCC(C)C)c3ccncc3n2)cn1` [Example 195, 2-(1-ethyl-1H-pyrazol-4-yl)-N-(2-methylpropyl)pyrido[3,4-d]pyrimidin-4-amine], in experiment [2], the IC50 was more than 10000 nM.
The same measure, in the same setting: for `CC(Nc1nc(-c2ccnn2C)nc2cnccc12)c1ccncc1` (stereo not drawn) [Example 193, 2-(1-methyl-1H-pyrazol-5-yl)-N-[1-(pyridin-4-yl)ethyl]pyrido[3,4-d]pyrimidin-4-amine] the value was more than 10000 nM.
The same measure, in the same setting: in the case of `CN(c1nc(-c2ccnn2C)nc2cnccc12)C1(C)CC1` [Example 169, N-methyl-2-(1-methyl-1H-pyrazol-5-yl)-N-(1-methylcyclopropyl)pyrido[3,4-d]pyrimidin-4-amine] it was 98 nM; in that of `COC(=O)CC1(Nc2nc(-c3ccncc3)nc3cnccc23)CC1` [Example 102, methyl 2-(1-{[2-(pyridin-4-yl)pyrido[3,4-d]pyrimidin-4-yl]amino}cyclopropyl)acetate], 126 nM.
